Source: article PMC5519620 (Frontiers in Cellular Neuroscience, 2017)
“Also recorded” adds a separate entry of the source.

How the values were obtained:
mouse α9α10 nAChR = mouse α9α10 nAChR (Mus musculus, UniProt B2RX82+G3X8Z7); test: Agonist activation of mouse α9α10 nAChRs in Xenopus oocytes (two-electrode voltage clamp); format: biochemical; details: for Hill slope for activation / EC50: 95% confidence interval in parentheses, ACh n = 5, choline n = 4; for agonist behaviour (words): oocyte two-electrode voltage clamp, nicotine 100 nM to 10 mM; for EC50: oocytes, holding potential −70 mV
Method: X. laevis oocytes were injected with 25 ng of each cRNA encoding α9 and α10 subunits as previously described (Cartier et al., [1996]) and incubated for 48 h at 17°C in ND96 prior to use. Two-electrode voltage clamp electrophysiology was conducted to assess for functional expression of α9α10 nAChRs as previously described (Azam et al., [2008]). The oocyte membranes were clamped at a holding potential of −70 mV and stimulated with 1 s pulses of 1 mM ACh once every 60 s. After a steady-state response baseline was observed, the oocytes were then stimulated with ascending concentrations of ACh, choline, or nicotine. Each oocyte was stimulated first with ACh followed by choline then nicotine. The maximal response value for activation by ACh was determined using the Hill equation: Y = Bottom + (Top-Bottom)/(1+10^∧((LogEC50−X)*Hill slope)). The responses to all concentrations of ACh, choline, and nicotine were then normalized to this value and calculated as a % response.

α9α10 nAChR = details: MLA and α-bungarotoxin; no reference given; cited from earlier work
α9* nAChRs of monocytes = details: ref Hecker et al., 2015; Richter et al., 2016; Backhaus et al., 2017; cited from earlier work
CBA/CaJ mice = details: mouse, in vivo

mouse α9α10 nAChR, sequence (G3X8Z7 23-479): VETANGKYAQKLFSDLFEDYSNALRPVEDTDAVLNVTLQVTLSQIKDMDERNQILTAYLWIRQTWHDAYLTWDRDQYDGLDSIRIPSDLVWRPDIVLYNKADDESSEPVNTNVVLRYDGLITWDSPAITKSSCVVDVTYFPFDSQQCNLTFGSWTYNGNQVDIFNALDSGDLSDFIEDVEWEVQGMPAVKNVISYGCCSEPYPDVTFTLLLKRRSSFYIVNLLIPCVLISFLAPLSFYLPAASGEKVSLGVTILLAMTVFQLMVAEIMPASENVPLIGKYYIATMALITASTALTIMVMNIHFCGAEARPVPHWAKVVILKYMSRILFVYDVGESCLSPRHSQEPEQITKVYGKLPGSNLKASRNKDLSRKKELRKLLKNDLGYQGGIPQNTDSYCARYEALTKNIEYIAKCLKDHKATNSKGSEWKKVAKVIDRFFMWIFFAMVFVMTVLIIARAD
mouse α9α10 nAChR, sequence (B2RX82 25-447): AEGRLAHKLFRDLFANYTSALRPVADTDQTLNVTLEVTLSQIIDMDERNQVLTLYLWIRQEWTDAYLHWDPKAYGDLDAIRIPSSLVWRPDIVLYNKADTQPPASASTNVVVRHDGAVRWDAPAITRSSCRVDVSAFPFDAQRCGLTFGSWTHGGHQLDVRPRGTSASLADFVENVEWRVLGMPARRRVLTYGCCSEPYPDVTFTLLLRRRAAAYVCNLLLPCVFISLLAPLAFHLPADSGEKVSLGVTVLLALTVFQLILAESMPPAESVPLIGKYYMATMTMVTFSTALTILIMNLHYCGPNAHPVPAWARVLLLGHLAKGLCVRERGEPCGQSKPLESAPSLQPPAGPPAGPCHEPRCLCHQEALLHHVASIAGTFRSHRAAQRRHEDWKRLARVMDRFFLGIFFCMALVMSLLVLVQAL

## CC(=O)OCC[N+](C)(C)C [ACh, acetylcholine]
Mouse α9α10 nAChR; 1 mM ACh
  ACh-evoked current amplitude: > 10 μA
Mouse α9α10 nAChR
  Hill slope for activation: 1.1 (0.8–1.4)
  agonist behaviour (words): activated; also recorded: induced robust currents
  EC50: 30.1 µM

## C[N+](C)(C)CCO [choline]
Mouse α9α10 nAChR
  Hill slope for activation: 1.3 (0.5–2.1)
  agonist behaviour (words): activated
  EC50: 601 µM
Mouse α9α10 nAChR; listed as Choline
  agonist behaviour (words): behaved as a partial agonist relative to ACh; also recorded: potently activated α9α10 nAChRs

## CCN1C[C@]2(COC(=O)c3ccccc3N3C(=O)C[C@H](C)C3=O)CC[C@H](OC)[C@@]34[C@@H]5C[C@H]6[C@H](OC)[C@@H]5[C@](O)(C[C@@H]6OC)[C@@](O)([C@@H](OC)[C@H]23)[C@@H]14 [methyllycaconitine (MLA), methyllycaconitine]
α9α10 nAChR
  α9α10 nAChR block: potently block α9α10 nAChRs

## CN1CCC[C@H]1c1cccnc1 [nicotine]
Mouse α9α10 nAChR; n = 4, nicotine
  evoked current (% response relative to ACh maximum): 0.4 ± 0.2%
Mouse α9α10 nAChR
  agonist behaviour (words): not by nicotine; also recorded: did not activate Xenopus oocyte-expressed mouse α9α10 nAChRs
Mouse α9α10 nAChR; listed as Nic
  agonist behaviour (words): failed to evoke currents at concentration from 100 nM to 10 mM
Mouse α9α10 nAChR; listed as Nicotine
  agonist behaviour (words): failed to evoke currents in all oocytes tested
α9* nAChRs of monocytes
  Agonist action on monocyte α9* nAChRs: act as an agonist of α9^* nAChRs in immune cell monocytes

## O=C1[O][Pt]2([NH][C@@H]3CCCC[C@H]3[NH]2)[O]C1=O [oxaliplatin]
CBA/CaJ mice
  Oxaliplatin-induced cold allodynia: produced cold allodynia, an effect that significantly differed from control beginning by week three and continuing for 2 weeks post-oxaliplatin treatment
